Assay results: patent US6737383B1, “Herbicidal oxadiazolidines” (priority 1999, dated 2004)

Experiments:
bedstraw = experiment: Test B pre/postemergence bedstraw; format: in vivo, Galium aparine
Outline: (§1)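 Herbicidal effect was estimated by eye on a ten-point control scale after plants spent twelve to sixteen days in a greenhouse following soil or foliar treatment. Foliar sprays targeted plants at one to four leaves; all doses were formulated in a non-phytotoxic solvent with surfactant.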

blackgrass = experiment: Test B pre/postemergence blackgrass; format: in vivo, Alopecurus myosuroides
Outline: as §1

surinam grass = experiment: Test B pre/postemergence surinam grass; format: in vivo, Brachiaria decumbens
Outline: as §1

cocklebur = experiment: Test B pre/postemergence cocklebur; format: in vivo, Xanthium strumarium
Outline: as §1

corn = experiment: Test B pre/postemergence corn; format: in vivo, Zea mays
Outline: as §1

crabgrass = experiment: Test B pre/postemergence crabgrass; format: in vivo, Digitaria sanguinalis
Outline: as §1

soybean = experiment: Test B pre/postemergence soybean; format: in vivo, Glycine max
Outline: as §1

sugar beet = experiment: Test B pre/postemergence sugar beet; format: in vivo, Beta vulgaris
Outline: as §1

velvetleaf = experiment: Test B pre/postemergence velvetleaf; format: in vivo, Abutilon theophrasti
Outline: as §1

wheat = experiment: Test B pre/postemergence wheat; format: in vivo, Triticum aestivum
Outline: as §1

wild oat = experiment: Test B pre/postemergence wild oat; format: in vivo, Avena fatua
Outline: as §1

purple nutsedge = experiment: Test B pre/postemergence purple nutsedge; format: in vivo, Cyperus rotundus
Outline: as §1

rice = experiment: Test B flood test rice; format: in vivo, Oryza sativa
Outline: (§2)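 Read-out is a visual response score from 0 (no effect) to 10 (complete control), assigned by comparison with untreated controls. Treatment was applied at the 2-leaf stage, and plants stayed in the greenhouse for twelve to sixteen days before scoring.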

smallflower flatsedge = experiment: Test B flood test smallflower flatsedge; format: in vivo, Cyperus difformis
Outline: as §2

duck salad = experiment: Test B flood test duck salad; format: in vivo, Heteranthera limosa
Outline: as §2

bamyardgrass = experiment: Test B flood test barnyardgrass; format: in vivo, Echinochloa crus-galli
Outline: as §2

[1] = Postemergence, Rate 62 g/ha, scale 0 to 10, 0 is no effect, 10 is complete control
[2] = Postemergence, Rate 250 g/ha, scale 0 to 10, 0 no effect, 10 complete control
[3] = Preemergence, Rate 62 g/ha, scale 0 to 10 (0 no effect, 10 complete control)
[4] = Preemergence, Rate 125 g/ha, scale 0 to 10 (0 no effect, 10 complete control)
[5] = Preemergence, Rate 250 g/ha, scale of 0 to 10 where 0 is no effect and 10 is complete control
[6] = Preemergence, Rate 500 g/ha, scale 0 (no effect) to 10 (complete control)
[7] = Rate 125 g/ha, Postemergence, scale 0 to 10, 0 no effect, 10 complete control
[8] = Rate 500 g/ha, Postemergence, scale 0 to 10, 0 no effect, 10 complete control
[9] = Rate 125 g/ha, Postemergence section (flood test species), scale 0 to 10, 0 no effect, 10 complete control
[10] = Rate 500 g/ha, listed under Postemergence (flood test species), scale 0 to 10, 0 no effect, 10 complete control
[11] = flood test, listed under Postemergence, Rate 250 g/ha, scale 0 to 10, 0 no effect, 10 complete control

Cc1ccccc1Cn1c(=O)on(C(=O)N(C)c2ccccc2)c1=O [Compound 85]
0: Bedstraw plant response rating (bedstraw; [1]) | Bedstraw plant response rating (bedstraw; [2]) | Bedstraw plant response rating (bedstraw; [3]) | Plant response rating, Bedstraw (bedstraw; [4]) | Plant response rating, Bedstraw (bedstraw; [5]) | Bedstraw plant response rating (bedstraw; [6]) | Bedstraw plant response rating (bedstraw; [7]) | Bedstraw plant response rating (bedstraw; [8]) | Blackgrass plant response rating (blackgrass; [1]) | Blackgrass plant response rating (blackgrass; [2]) | Blackgrass plant response rating (blackgrass; [3]) | Plant response rating, Blackgrass (blackgrass; [4]) | Plant response rating, Blackgrass (blackgrass; [5]) | Blackgrass plant response rating (blackgrass; [6]) | Blackgrass plant response rating (blackgrass; [7]) | Blackgrass plant response rating (blackgrass; [8]) | B. signalgrass plant response rating (surinam grass; [1]) | B. signalgrass plant response rating (surinam grass; [2]) | B. signalgrass plant response rating (surinam grass; [3]) | Plant response rating, B. signalgrass (surinam grass; [4]) | Plant response rating, B. signalgrass (surinam grass; [5]) | B. signalgrass plant response rating (surinam grass; [6]) | B. signalgrass plant response rating (surinam grass; [7]) | B. signalgrass plant response rating (surinam grass; Rate 500 g/ha, Postemergence, scale of 0 to 10 where 0 is no effect and 10 is complete control) | Cocklebur plant response rating (cocklebur; [1]) | Cocklebur plant response rating (cocklebur; [2]) | Cocklebur plant response rating (cocklebur; [3]) | Plant response rating, Cocklebur (cocklebur; [4]) | Plant response rating, Cocklebur (cocklebur; [5]) | Cocklebur plant response rating (cocklebur; [6]) | Cocklebur plant response rating (cocklebur; [7]) | Cocklebur plant response rating (cocklebur; [8]) | Corn plant response rating (corn; [1]) | Corn plant response rating (corn; [2]) | Corn plant response rating (corn; [3]) | Plant response rating, Corn (corn; [4]) | Plant response rating, Corn (corn; [5]) | Corn plant response rating (corn; [6]) | Corn plant response rating (corn; [7]) | Corn plant response rating (corn; [8]) | Crabgrass plant response rating (crabgrass; [1]) | Crabgrass plant response rating (crabgrass; [2]) | Crabgrass plant response rating (crabgrass; [3]) | Plant response rating, Crabgrass (crabgrass; [4]) | Plant response rating, Crabgrass (crabgrass; [5]) | Crabgrass plant response rating (crabgrass; [6]) | Crabgrass plant response rating (crabgrass; [7]) | Crabgrass plant response rating (crabgrass; [8]) | Soybean plant response rating (soybean; [1]) | Soybean plant response rating (soybean; [2]) | Soybean plant response rating (soybean; [3]) | Plant response rating, Soybean (soybean; [4]) | Plant response rating, Soybean (soybean; [5]) | Soybean plant response rating (soybean; [6]) | Soybean plant response rating (soybean; [7]) | Soybean plant response rating (soybean; [8]) | Sugarbeets plant response rating (sugar beet; [1]) | Sugarbeets plant response rating (sugar beet; [2]) | Sugarbeets plant response rating (sugar beet; [3]) | Plant response rating, Sugarbeets (sugar beet; [4]) | Plant response rating, Sugarbeets (sugar beet; [5]) | Sugarbeets plant response rating (sugar beet; [6]) | Sugarbeets plant response rating (sugar beet; [7]) | Sugarbeets plant response rating (sugar beet; [8]) | Velvetleaf plant response rating (velvetleaf; [1]) | Velvetleaf plant response rating (velvetleaf; [2]) | Velvetleaf plant response rating (velvetleaf; [3]) | Plant response rating, Velvetleaf (velvetleaf; [4]) | Plant response rating, Velvetleaf (velvetleaf; [5]) | Velvetleaf plant response rating (velvetleaf; [6]) | Velvetleaf plant response rating (velvetleaf; [7]) | Velvetleaf plant response rating (velvetleaf; [8]) | Wheat plant response rating (wheat; [1]) | Wheat plant response rating (wheat; [2]) | Wheat plant response rating (wheat; [3]) | Plant response rating, Wheat (wheat; [4]) | Plant response rating, Wheat (wheat; [5]) | Wheat plant response rating (wheat; [6]) | Wheat plant response rating (wheat; [7]) | Wheat plant response rating (wheat; [8]) | Wild oats plant response rating (wild oat; [1]) | Wild oats plant response rating (wild oat; [2]) | Wild oats plant response rating (wild oat; [3]) | Plant response rating, Wild oats (wild oat; [4]) | Plant response rating, Wild oats (wild oat; [5]) | Wild oats plant response rating (wild oat; [6]) | Wild oats plant response rating (wild oat; [7]) | Wild oats plant response rating (wild oat; [8]) | Nutsedge plant response rating (purple nutsedge; [1]) | Nutsedge plant response rating (purple nutsedge; [2]) | Nutsedge plant response rating (purple nutsedge; [3]) | Plant response rating, Nutsedge (purple nutsedge; [4]) | Plant response rating, Nutsedge (purple nutsedge; [5]) | Nutsedge plant response rating (purple nutsedge; [6]) | Nutsedge plant response rating (purple nutsedge; [7]) | Nutsedge plant response rating (purple nutsedge; [8]) | Rice plant response rating (rice; [1]) | Rice plant response rating (rice; [9]) | Rice plant response rating (rice; [10]) | Rice plant response rating (rice; [11]) | S. Flatsedge plant response rating (smallflower flatsedge; [1]) | S. Flatsedge plant response rating (smallflower flatsedge; [9]) | S. Flatsedge plant response rating (smallflower flatsedge; [10]) | S. Flatsedge plant response rating (smallflower flatsedge; [11]) | Ducksalad plant response rating (duck salad; [1]) | Ducksalad plant response rating (duck salad; [9]) | Ducksalad plant response rating (duck salad; [10]) | Ducksalad plant response rating (duck salad; [11]) | Barnyardgrass plant response rating (bamyardgrass; [1]) | Barnyardgrass plant response rating (bamyardgrass; [9]) | Barnyardgrass plant response rating (bamyardgrass; [10]) | Barnyardgrass plant response rating (bamyardgrass; [11])
